The values that follow come from BindingDB's records for doi:10.1016/s0960-894x(02)01027-2 (Glaxosmithkline, 2003).

One experiment addresses Methionine--tRNA ligase (Staphylococcus aureus). As to the kind of experiment: Compound tested for inhibition of Staphylococcus aureus MRS(methionyl tRNA synthetase) in aminoacylation assay.
Regarding `Oc1cc(NCCCNCc2cc(Br)cc(Br)c2)nc2ccccc12`, the IC50 is under 3 nM.
In turn, `Oc1cc(NCCCNCc2cc(Cl)cc(Cl)c2Cl)nc2ccccc12` displayed a half-maximal inhibitory concentration (IC50) of under 3 nM.
The same measure, in the same setting: as for `CCOc1c(I)cc(I)cc1CNCCCNc1cc(O)c2ccccc2n1`, the figure is under 3 nM.

A further experiment shares this target. The experiment is described as above. The source holds these as a separate data set.
`CCOc1c(Br)cc(OC)cc1CNCCCNc1cc(O)c2ccccc2n1` [2-[3-(3-Bromo-2-ethoxy-5-methoxy-benzylamino)-propylamino]-1H-quinolin-4-one] yielded an IC50 of 3.1 nM.
The same measure, in the same setting: the value for `CCOc1c(Br)cc(C)cc1CNCCCNc1cc(O)c2ccccc2n1` [2-[3-(3-Bromo-2-ethoxy-5-methyl-benzylamino)-propylamino]-1H-quinolin-4-one] was 4.9 nM; that for `CCOc1c(Br)cc(SC)cc1CNCCCNc1cc(O)c2ccccc2n1` [2-[3-(3-Bromo-2-ethoxy-5-methylsulfanyl-benzylamino)-propylamino]-1H-quinolin-4-one] was 4.7 nM.
With `CCOc1c(Cl)cc(OC)cc1CNCCCNc1cc(O)c2ccccc2n1` [2-[3-(3-Chloro-2-ethoxy-5-methoxy-benzylamino)-propylamino]-1H-quinolin-4-one], it took 4.3 nM to reach half-maximal inhibition (IC50).
Consider `Oc1cc(NCCCNCc2cc(Br)cc(Br)c2OCC(F)(F)F)nc2ccccc12` [2-{3-[3,5-Dibromo-2-(2,2,2-trifluoro-ethoxy)-benzylamino]-propylamino}-1H-quinolin-4-one], for which the IC50 stood at 11 nM.
As to `O=C(NCCCNc1cc(O)c2ccccc2n1)c1ccc(Cl)c(Cl)c1` [3,4-Dichloro-N-[3-(4-oxo-1,4-dihydro-quinolin-2-ylamino)-propyl]-benzamide], 140 nM corresponded to half-maximal inhibition (IC50).
On the same count and under the same terms, as for `CCOc1c(Br)cc(C#N)cc1CNCCCNc1cc(O)c2ccccc2n1` [3-Bromo-4-ethoxy-5-{[3-(4-oxo-1,4-dihydro-quinolin-2-ylamino)-propylamino]-methyl}-benzonitrile], the figure is 4.6 nM.

As a reminder, the IC50 is the point on the concentration scale where inhibition reaches its midpoint. High values mean weaker potency in that assay, low ones greater potency in that assay.
